The source made the active and inactive calls.
What was measured:
[1] = THP-1 cell cytotoxicity, dose response, cytotoxicity control for non-replicating M. tuberculosis project (AID 489025); format: functional
[2] = HepG2 cell cytotoxicity, dose response, cytotoxicity control for non-replicating M. tuberculosis project (AID 489018); format: functional; conditions: Mycobacterium tuberculosis
[3] = target: T1, C-C chemokine receptor type 6 (Homo sapiens, UniProt P51684); assay: CCR6 receptor antagonists, dose response, cell-based, luminescent beta-arrestin readout (AID 504728); format: functional
T1 sequence (P51684 whole entry): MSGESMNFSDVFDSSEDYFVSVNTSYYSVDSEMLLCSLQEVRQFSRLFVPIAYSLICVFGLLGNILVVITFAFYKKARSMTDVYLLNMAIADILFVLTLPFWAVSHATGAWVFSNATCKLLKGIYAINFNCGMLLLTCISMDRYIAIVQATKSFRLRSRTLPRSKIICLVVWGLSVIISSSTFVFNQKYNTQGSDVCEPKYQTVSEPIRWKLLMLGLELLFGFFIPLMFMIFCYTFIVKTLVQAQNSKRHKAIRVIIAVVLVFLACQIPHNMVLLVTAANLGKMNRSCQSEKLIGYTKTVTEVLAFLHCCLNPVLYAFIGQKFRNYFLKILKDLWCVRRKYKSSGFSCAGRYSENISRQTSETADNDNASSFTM

Beta-galactosidase = Beta-galactosidase (Escherichia coli, UniProt Q8VNN2); assay: beta-galactosidase enzyme inhibitors and activators, dose response, artefact control for CCR6 antagonist project, biochemical, E. coli enzyme, set 3 (AID 504712); format: functional
[4] = Vero E6 cell cytotoxicity, dose response, cytotoxicity control for non-replicating M. tuberculosis project, secondary assay (AID 492998); format: functional, VeroE6; conditions: Vero C1008
cells = format: functional
INS1 = assay: beta cell apoptosis inhibitors, cytokine rescue, dose response, luminescence, retest (AID 449756); format: functional, cell-based; conditions: Rattus norvegicus;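 further: cell death triggered by IL-1 beta plus TNF-alpha plus IFN-gamma mixture; protective hits raise ATP signal compared with cytokine alone wells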
[5] = target: T2, Short transient receptor potential channel 4 (Mus musculus, UniProt Q9QUQ5); assay: TRPC4 positive allosteric modulators, dose response, cell-based, HEK293 TRPC4/mu-opioid, Fluo-4 calcium, EC20 DAMGO (AID 434941); format: functional
T2 sequence (Q9QUQ5 whole entry): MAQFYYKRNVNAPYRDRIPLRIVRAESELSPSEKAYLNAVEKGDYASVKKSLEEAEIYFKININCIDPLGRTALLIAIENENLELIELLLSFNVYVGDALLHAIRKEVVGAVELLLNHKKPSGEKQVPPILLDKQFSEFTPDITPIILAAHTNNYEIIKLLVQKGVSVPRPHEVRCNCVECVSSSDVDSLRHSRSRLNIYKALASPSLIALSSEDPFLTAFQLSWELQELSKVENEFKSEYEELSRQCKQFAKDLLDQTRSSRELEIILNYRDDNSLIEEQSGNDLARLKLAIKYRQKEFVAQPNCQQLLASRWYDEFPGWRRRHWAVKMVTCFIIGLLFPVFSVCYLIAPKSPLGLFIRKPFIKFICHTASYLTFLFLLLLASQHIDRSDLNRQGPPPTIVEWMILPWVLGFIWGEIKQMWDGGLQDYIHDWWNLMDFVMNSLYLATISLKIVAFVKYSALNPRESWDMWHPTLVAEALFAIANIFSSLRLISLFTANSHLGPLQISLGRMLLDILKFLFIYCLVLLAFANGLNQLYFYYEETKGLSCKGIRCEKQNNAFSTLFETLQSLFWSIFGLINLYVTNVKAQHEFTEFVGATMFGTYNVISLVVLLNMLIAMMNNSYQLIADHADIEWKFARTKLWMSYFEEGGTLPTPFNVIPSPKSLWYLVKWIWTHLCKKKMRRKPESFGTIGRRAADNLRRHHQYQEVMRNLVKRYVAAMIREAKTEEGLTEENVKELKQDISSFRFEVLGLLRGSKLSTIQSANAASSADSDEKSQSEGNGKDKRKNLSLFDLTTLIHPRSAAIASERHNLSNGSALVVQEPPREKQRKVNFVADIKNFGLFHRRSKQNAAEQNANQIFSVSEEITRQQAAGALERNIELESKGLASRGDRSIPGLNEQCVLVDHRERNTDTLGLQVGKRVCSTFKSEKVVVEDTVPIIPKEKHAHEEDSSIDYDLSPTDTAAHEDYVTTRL

Coagulation factor XII [6] = target: T3, Coagulation factor XII (Homo sapiens, UniProt P00748); format: functional;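 further: activated factor XIIa alpha cleaving a fluorogenic AMC peptide substrate; inhibitor potency from loss of enzyme activity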
T3 sequence (P00748 whole entry): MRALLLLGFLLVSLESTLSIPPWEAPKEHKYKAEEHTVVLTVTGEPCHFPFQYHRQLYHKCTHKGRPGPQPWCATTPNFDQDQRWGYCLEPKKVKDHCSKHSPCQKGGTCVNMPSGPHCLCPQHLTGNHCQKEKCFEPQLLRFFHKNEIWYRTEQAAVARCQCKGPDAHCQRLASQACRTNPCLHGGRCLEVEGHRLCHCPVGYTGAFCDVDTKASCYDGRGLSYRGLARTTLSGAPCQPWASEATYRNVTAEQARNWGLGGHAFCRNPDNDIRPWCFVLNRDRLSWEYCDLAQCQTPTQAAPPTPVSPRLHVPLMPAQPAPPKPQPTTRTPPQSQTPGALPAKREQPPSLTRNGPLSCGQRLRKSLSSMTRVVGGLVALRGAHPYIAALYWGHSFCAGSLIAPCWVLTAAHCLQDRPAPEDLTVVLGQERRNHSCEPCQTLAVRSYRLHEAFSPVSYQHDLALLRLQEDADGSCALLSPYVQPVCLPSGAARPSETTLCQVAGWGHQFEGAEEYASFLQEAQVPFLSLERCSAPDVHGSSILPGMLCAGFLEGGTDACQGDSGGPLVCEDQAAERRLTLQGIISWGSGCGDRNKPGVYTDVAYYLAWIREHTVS

Coagulation factor XII [7] = target: T3, Coagulation factor XII; assay: FXIIa inhibitor potency, concentration-response, biochemical (AID 716); format: functional
[8] = inhibitors of firefly luciferase expression or activity, dose response, H4 neuroglioma cells, luminescence (AID 1990); format: functional, cell-based
[9] = Luminescence Cell-Based Dose Response HTS to Identify Inhibitors of 5'UTR Stem-Loop Driven Prion Protein mRNA Translation in H4 Neuroglioblastoma Cells. [Related pubchem assays: 1827 (Project Summary), 1813 (Primary HTS)]; format: functional
[10] = inhibitors of SNCA 5'UTR-driven reporter translation, confirmation, H4 neuroglioma cells, luminescence (AID 1988); format: functional, cell-based
Phosphomannomutase 2 = Phosphomannomutase 2 (Homo sapiens, UniProt O15305); assay: Counter screen SAR assay for PMM2 inhibitors via a fluorescence intensity assay. [Related pubchem assays (depositor defined):AID1545, AID1574]
X-box-binding protein 1 = target: T4, X-box-binding protein 1 (Homo sapiens, UniProt P17861); format: functional, Cricetulus griseus;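 further: confirmatory dose-response counter-screen serving a CHOP assay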
T4 sequence (P17861 whole entry): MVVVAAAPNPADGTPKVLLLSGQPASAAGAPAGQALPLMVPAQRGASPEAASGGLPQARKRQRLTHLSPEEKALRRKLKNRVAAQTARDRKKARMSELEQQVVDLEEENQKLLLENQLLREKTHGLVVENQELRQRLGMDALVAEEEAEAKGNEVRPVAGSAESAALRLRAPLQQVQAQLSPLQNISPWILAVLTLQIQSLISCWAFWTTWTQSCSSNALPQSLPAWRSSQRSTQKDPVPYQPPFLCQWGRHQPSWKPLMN

Paired box protein Pax-8 = Paired box protein Pax-8 (Homo sapiens, UniProt Q06710); assay: inhibitors of PAX8-driven TPO luciferase reporter, dose response, RMG-I cells, cherry-pick (AID 687027); format: functional, cell-based;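 further: luciferase reporter driven by Pax8 target thyroperoxidase promoter measured by SteadyGlo luminescence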
Chain of Paired box protein Pax-8 (Q06710 whole entry): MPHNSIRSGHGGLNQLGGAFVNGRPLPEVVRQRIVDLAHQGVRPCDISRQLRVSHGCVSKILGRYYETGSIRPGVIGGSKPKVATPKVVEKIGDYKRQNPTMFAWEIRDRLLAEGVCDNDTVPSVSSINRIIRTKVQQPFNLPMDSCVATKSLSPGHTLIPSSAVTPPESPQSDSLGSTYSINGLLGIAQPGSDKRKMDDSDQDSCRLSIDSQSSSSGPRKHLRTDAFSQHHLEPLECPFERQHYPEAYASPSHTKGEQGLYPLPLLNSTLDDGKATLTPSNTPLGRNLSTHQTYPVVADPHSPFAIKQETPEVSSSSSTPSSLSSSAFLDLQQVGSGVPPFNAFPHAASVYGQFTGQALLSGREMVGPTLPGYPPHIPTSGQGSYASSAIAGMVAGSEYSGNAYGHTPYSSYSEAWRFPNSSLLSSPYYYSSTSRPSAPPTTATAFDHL

Chain of Beta-galactosidase (Q8VNN2 whole entry): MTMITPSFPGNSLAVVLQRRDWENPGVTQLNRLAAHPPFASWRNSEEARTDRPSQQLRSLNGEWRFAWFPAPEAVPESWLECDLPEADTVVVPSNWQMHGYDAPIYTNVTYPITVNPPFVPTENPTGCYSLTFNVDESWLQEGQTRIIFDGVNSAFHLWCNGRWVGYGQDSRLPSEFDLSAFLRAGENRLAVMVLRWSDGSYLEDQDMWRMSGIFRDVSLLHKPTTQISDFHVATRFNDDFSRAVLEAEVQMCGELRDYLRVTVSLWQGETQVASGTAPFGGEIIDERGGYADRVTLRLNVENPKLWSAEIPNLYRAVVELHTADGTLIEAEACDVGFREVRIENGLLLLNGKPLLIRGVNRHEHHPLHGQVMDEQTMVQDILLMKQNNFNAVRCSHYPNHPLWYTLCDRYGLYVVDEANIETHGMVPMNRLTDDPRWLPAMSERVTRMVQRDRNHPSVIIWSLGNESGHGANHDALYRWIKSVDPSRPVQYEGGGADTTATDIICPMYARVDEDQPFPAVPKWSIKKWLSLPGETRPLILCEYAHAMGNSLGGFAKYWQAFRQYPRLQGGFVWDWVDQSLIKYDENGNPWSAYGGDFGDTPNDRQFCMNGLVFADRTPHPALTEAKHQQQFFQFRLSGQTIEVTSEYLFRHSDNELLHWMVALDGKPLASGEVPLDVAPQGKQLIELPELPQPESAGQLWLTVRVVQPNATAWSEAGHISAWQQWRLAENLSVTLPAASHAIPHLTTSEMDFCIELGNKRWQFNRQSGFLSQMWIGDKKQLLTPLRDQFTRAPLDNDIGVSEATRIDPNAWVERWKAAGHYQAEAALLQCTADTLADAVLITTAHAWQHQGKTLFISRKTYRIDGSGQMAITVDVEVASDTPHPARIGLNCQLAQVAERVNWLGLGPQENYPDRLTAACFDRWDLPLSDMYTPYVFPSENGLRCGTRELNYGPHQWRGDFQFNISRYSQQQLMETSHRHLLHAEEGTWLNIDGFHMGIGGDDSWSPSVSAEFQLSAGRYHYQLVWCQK
Chain of Phosphomannomutase 2 (O15305 whole entry): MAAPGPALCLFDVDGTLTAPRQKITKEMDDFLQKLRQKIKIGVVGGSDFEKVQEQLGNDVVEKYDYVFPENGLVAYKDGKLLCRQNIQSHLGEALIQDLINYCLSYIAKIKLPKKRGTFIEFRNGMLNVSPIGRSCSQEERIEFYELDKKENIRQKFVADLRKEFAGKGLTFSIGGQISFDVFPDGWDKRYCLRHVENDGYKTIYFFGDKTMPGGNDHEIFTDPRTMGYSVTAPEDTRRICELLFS

Cc1cc(N/N=C/c2ccc(F)cc2)nc(-n2nc(C)cc2C)n1
CC50 [1]: 10.8 µM (active)
CC50 [2]: > 20 µM (active)
IC50 [3]: > 66.6 µM (inactive)
IC50 (Beta-galactosidase): > 66.6 µM (inactive)
CC50 [4]: 15.6 µM (active)
IC50 (cells): < 0.1 µM (active)
AC50 (INS1): 2.81 µM (active)

Cc1ccc(/C=N/NC(=O)NC2CCCCC2)o1
EC50 [5]: 3.35 µM (active)

O=S(=O)(N1CCCCC1)N1CCN(c2ccccc2F)CC1
IC50 (Coagulation factor XII [6]): > 50 µM (inactive)

Cc1cc(N2CCCC2=O)cc(C)c1S(=O)(=O)NCCOc1ccccc1
IC50 (Coagulation factor XII [7]): > 50 µM (inactive)

CCSc1nc(-c2ccccc2)nc(C(Cl)Cl)n1
EC50 [8]: > 120 µM (not active)
EC50 [9]: 5.98 µM (active)
EC50 [10]: 1.11 µM (active)
IC50 (Phosphomannomutase 2): > 100 µM (inactive)
Absolute IC50 (XBP1) (X-box-binding protein 1): 10 µM
AC50 (Paired box protein Pax-8): 1.95 µM (active)

From ChEMBL document CHEMBL1201862, “PubChem BioAssay data set” (2004)
